Reference: publication PMC6642116, “Structural and functional analyses of hepatitis B virus X protein BH3-like domain and Bcl-xL interaction” (Nature Communications, 2019)

How the values were obtained:
Bcl-xL = target: T1, Bcl-xL (Homo sapiens, UniProt Q07817, DEL27-82); experiment: Isothermal titration calorimetry of peptides with Bcl-xL; type: binding; conditions: ITC, 25 °C; Bcl-xL 10 μM in 25 mM Tris-HCl (pH 8.0); peptide 800 μM
T1 construct: 6xHis-SUMO (N, cleaved yes); made in house; host or cells: Escherichia coli BL21(DE3)
Excerpt: The codon-optimized DNAs encoding Bcl-xLΔTM (the flexible loop, residues 27–82, and the transmembrane domain, residues, 197–233, are deleted, total […], named as Bcl-xL thereafter) was ordered from Genewiz (www.genewiz.com). The recombinant Bcl-xL with N-terminal SUMO-fused 6× His tag was generated by the insertion of the PCR products into pETSUMO vector (Invitrogen; www.thermofisher.com) and verified by sequencing. Recombinant proteins were expressed in Escherichia coli (BL21/DE3) strain overnight at 20 °C and proteins were induced by 0.4 mM isopropyl β-D-thiogalactoside. Cells were harvested by centrifugation and the pellets were re-suspended and passed through a cell disruptor (www.avestin.com) three times. After ultracentrifugation at 40,000 rpm for 1 h, the supernatant for His-tagged recombinant proteins were purified through Ni^2+ affinity column, cleaved by Ulp-1, followed by HiLoad Superdex S-75 26/60 column (GE Healthcare). The purified proteins were dialyzed against stabilization buffer containing 20 mM Tris-HCl (pH 7.0) and 100 mM NaCl and concentrated to 10–15 mg/ml in a Centriprep-30 (Amicon) for subsequent crystallization and biochemical analysis.
Microcalorimetry was used for all measurements. Bcl-xL protein was prepared at a final concentration of 10 μM in a buffer containing 25 mM Tris-HCl (pH 8.0). The ABT-263 was dissolved in the same buffer to a final concentration of 500 μM, while the peptides were dissolved to a final concentration of 800 μM. All experiments were carried out at 25 °C. Data were analyzed using the software Origin (OriginLab).

[1] = system: endogenous Bcl-xL protein in HepG2 cell lysate; experiment: Co-precipitation of endogenous Bcl-xL from HepG2 cell lysate by biotinylated HBx peptides; type: binding, human; conditions: biotinylated peptide, streptavidin beads, immunoblot
Description: Fig. 2 HBx binds endogenous Bcl-xL through the BH3-like domain. a HBx-aa113–135 interacts with Bcl-xL in HepG2 cell lysate. Co-precipitation experiments were performed in the HepG2 cell lysate using biotinylated HBx-aa113–135 peptides (wild type (WT)) and corresponding mutant peptides (W120A/L123A), respectively. The results were analyzed by immunoblotting (IB) using anti-Bcl-xL antibody. β-Tubulin was measured and analyzed as an input control. b Full-length HBx interacts with Bcl-xL in HepG2 cells. Co-immunoprecipitation (co-IP) experiments were performed in HepG2 cells transfected with pTT22m-HBx-WT or pTT22m-HBx(W120A/L123A).
HepG2 cells were lysed in lysis buffer [100 mM NaCl, 0.5 mM MgCl2, 0.15 mM CaCl2, 1% (v/v) Nonidet P-40, 10 mM Tris-HCl, pH 8.0] containing protease inhibitor mixture tablets (Roche). Cell lysate was centrifuged at 12,000 × g for 10 min at 4 °C to removed debris and precleared with magnetic beads conjugated with streptavidin (Dynabeads® M-280 Streptavidin, Invitrogen). Subsequently, the precleared supernatant was incubated with C-terminal biotinylated peptides for 1 h with gentle shaking at 4 °C. […] The beads were washed five times with the lysis buffer and the bound proteins were resolved on a 13.5% sodium dodecyl sulfate-polyacrylamide gel and detected by anti-Bcl-xL antibody (Cell Signaling Technology).

[2] = system: HBV replication from pHBV1.3-Xnull replicon in HepG2 cells; experiment: HBV production rescue assay, PEP-1 delivered peptides; type: cell-based; conditions: HepG2 + pHBV1.3-Xnull; for HBcAg in cells / HBeAg in culture medium / HBsAg in culture medium / Secreted HBV DNA: peptide/PEP-1, 48 h; for HBV viral protein production and HBV DNA replication (in words): peptide/PEP-1 nanoparticles, 48 h
Excerpt: Fig. 3 The HBx-BH3-like domain is critical for HBV production in HepG2 cells. a–e C-terminal biotinylated HBx-aa113–135 peptides (both wild-type (WT) and the W120A/L123A double mutant) were delivered into HepG2 cells transfected with pHBV1.3-Xnull using PEP-1 nanoparticles (Methods) and analyzed by streptavidin-FITC (fluorescein isothiocyanate) for transfection efficiency (a). Scale bar is 50 μm. An unrelated 23-aa peptide was used as a control (Control). The intracellular expression levels of HBV core antigen (HBcAg (b) and the levels of HBV e-antigen (HBeAg) (c), HBV S-antigen (HBsAg) (d), and HBV DNA (e) in the culture medium collected from HepG2 cells were measured (Methods). The results are shown as fold change to the WT HBx-aa113–135 peptide (WT). f–i) HepG2 cells were co-transfected with pHBV1.3-Xnull and pTT22m-HBx-WT (WT), pHBV1.3-Xnull and pTT22m-HBx(W120A/L123A), or pHBV1.3-Xnull and the pTT22m vector control (Control). Intracellular expression levels of HBcAg (f) and the levels of HBeAg (g), HBsAg (h), and HBV DNA (i) in the culture medium from HepG2 cells were measured similarly. The results are shown as fold change to the combination of pHBV1.3-Xnull and pTT22m-HBx-WT (WT). Data shown represent mean ± SD. Significance is indicated on the top. **P < 0.01, ***P < 0.001, ****P < 0.0001; two-tailed unpaired t tests (n = 3 biologically independent samples). Source data are provided as a Source Data file
HepG2 cells were grown in Dulbecco’s modified Eagle’s medium (DMEM) with 10% Gibco fetal bovine serum. C-terminal biotinylated-labeled HBx peptides were transfected into HepG2 cells by pep-1[16], a peptide carrier for the delivery of biologically active proteins into mammalian cells. HBx peptides and pep-1 were firstly dissolved in DMEM to 1 mg/ml, then adjusted to 500 µl DMEM to a final concentration of 100 µg/ml, and incubated at 37 °C for 30 min in the tube. The incubated peptide mixture was added into pre-seeded HepG2 cells in a 24-well plate and incubated for another 30 min, and then washed five times by phosphate-buffered saline (PBS) to remove the free peptides. The transfected C-terminal biotinylated HBx peptides were detected by using streptavidin-FITC (fluorescein isothiocyanate) equipment (Thermo Fisher Scientific) following the standard immunostaining methods.
Transfection of plasmids into HepG2 cells was carried out using X-tremeGENE HP DNA Transfection Reagent (Roche), following the manufacturer’s protocol. A transfection efficiency of 20–30% could be achieved. Cells were pre-seeded 24 h before transfections. pHBV1.3-HBx-null plasmid was transfected into HepG2 cells for 6 h, then HBx-aa113–135, HBx-aa113–135-(W120A, L123A), or control peptide was transfected by pep-1 carrier and incubated for additional 48 h without the removal of peptides. The culture media of the HepG2 cells were harvest for analysis.
The levels of HBsAg, HBeAg, and HBcAg expression were measured by chemiluminescence, using Commercial Assay Kit (Wantai, Beijing, China). Northern blot analysis of HBV RNA, Southern blot analysis of HBV DNA, and real-time PCR quantification of HBV DNA are described in the Supplementary Methods.

DDB1 = type: binding; conditions: biotin-conjugated peptides, HepG2 lysate; peer review file, removed from final paper
Description: (§1) affect the level of the Smc6 proteins in HepG2 cell. a, Coprecipitation experiments were performed with HepG2 cell lysate that was incubated with biotinylated HBx-aa113-135 peptides (WT) and mutant peptides with the W120A/L123A mutations, respectively. The pulldown proteins were analyzed by immunoblotting (IB) using an anti-DDB1 antibody (Abcam, ab109027). b-c, HBx-aa113-135 peptides (wild-type and the W120A/L123A double mutant peptides) were delivered into HepG2 cells using PEP-1 nanoparticles, respectively. […]

SMC6 = type: cell-based; conditions: HepG2, 48 h, PEP-1 delivery; peer review file, removed from final paper
Description: as §1
Smc6 protein expression. Nuclei were stained with DAPI (Invitrogen, D1306). The fluorescence was detected by Opera Phenix High Content Screening System (PerkinElmer) and the mean green fluorescence intensity of cells was quantified by Opera Phenix High Content Screening System. The data shown are mean ± SD. Significant differences between groups are indicated on the top. ns, no significant difference; two-tailed unpaired t-tests.

T1 sequence (Q07817 with tags, fused parts or gaps DEL27-82 limits assumed): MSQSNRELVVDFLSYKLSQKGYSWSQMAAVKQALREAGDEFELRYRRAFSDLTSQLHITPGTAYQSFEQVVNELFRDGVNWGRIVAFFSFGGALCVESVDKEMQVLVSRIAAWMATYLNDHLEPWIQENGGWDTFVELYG

| Substance | dissociation constant (Bcl-xL) | co-precipitation of Bcl-xL [1] | HBcAg in cells ([2]; replicate 1) | HBeAg in culture medium ([2]; replicate 1) | HBsAg in culture medium ([2]; replicate 1) | Secreted HBV DNA ([2]; replicate 1) [Copies/mL] | HBcAg in cells ([2]; replicate 2) | HBeAg in culture medium ([2]; replicate 2) | HBsAg in culture medium ([2]; replicate 2) | Secreted HBV DNA ([2]; replicate 2) [Copies/mL] | HBcAg in cells ([2]; replicate 3) | HBeAg in culture medium ([2]; replicate 3) | HBsAg in culture medium ([2]; replicate 3) | Secreted HBV DNA ([2]; replicate 3) [Copies/mL] | HBV viral protein production and HBV DNA replication (in words) [2] | pull-down of DDB1 by peptide (DDB1) | level of SMC6 protein, compared with control peptide (SMC6) |
| --- | --- | --- | --- | --- | --- | --- | --- | --- | --- | --- | --- | --- | --- | --- | --- | --- | --- |
| KDCVFKDAEEAGEEIRLKVFVLG-K-biotin [HBx-aa113–135(W120A/L123A)] | not detectable | much less Bcl-xL was co-precipitated | 0.546 fold-change to WT | 0.448 fold-change to WT | 0.379 fold-change to WT | 1584000 | 0.465 fold-change to WT | 0.393 fold-change to WT | 0.356 fold-change to WT | 1498000 | 0.491 fold-change to WT | 0.405 fold-change to WT | 0.352 fold-change to WT | 1278000 | failed to do so | could not be pulled down | comparable |
| KDCVFKDWEELGEEIRLKVFVLG-K-biotin [HBx-aa113–135-biotin, C-terminal biotinylated wild-type HBx-aa113–135; delivered with PEP-1 nanoparticles in cells] | – | Bcl-xL was co-precipitated | 1.057 fold-change to WT | 0.919 fold-change to WT | 0.971 fold-change to WT | 3830000 | 0.952 fold-change to WT | 1.090 fold-change to WT | 1.038 fold-change to WT | 2973000 | 0.991 fold-change to WT | 0.990 fold-change to WT | 0.991 fold-change to WT | 4056000 | significantly increased both HBV viral protein production and HBV DNA replication | could not be pulled down | comparable |
